Test results published in ChEMBL document CHEMBL5291721, “A preclinical secondary pharmacology resource illuminates target-adverse drug reaction associations of marketed drugs” (Nat Commun, 2023).

Tests used:
[1] = biological target: T1, Alpha-1A adrenergic receptor (Homo sapiens, UniProt P35348); format: functional, cell-based
T1 sequence (P35348 whole entry): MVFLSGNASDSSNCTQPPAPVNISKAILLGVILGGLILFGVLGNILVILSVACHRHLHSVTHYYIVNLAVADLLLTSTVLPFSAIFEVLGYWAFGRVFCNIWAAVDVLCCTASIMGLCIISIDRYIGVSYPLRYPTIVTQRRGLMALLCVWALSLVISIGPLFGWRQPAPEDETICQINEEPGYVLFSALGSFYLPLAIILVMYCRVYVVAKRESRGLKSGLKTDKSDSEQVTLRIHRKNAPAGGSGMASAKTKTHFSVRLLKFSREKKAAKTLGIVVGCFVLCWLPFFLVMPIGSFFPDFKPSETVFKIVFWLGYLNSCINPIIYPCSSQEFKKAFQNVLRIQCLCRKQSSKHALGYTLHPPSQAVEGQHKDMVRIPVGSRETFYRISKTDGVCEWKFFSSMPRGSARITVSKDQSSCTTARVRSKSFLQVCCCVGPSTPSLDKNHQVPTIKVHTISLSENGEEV

[2] = biological target: T2, Alpha-2A adrenergic receptor (Homo sapiens, UniProt P08913)
T2 sequence (P08913 whole entry): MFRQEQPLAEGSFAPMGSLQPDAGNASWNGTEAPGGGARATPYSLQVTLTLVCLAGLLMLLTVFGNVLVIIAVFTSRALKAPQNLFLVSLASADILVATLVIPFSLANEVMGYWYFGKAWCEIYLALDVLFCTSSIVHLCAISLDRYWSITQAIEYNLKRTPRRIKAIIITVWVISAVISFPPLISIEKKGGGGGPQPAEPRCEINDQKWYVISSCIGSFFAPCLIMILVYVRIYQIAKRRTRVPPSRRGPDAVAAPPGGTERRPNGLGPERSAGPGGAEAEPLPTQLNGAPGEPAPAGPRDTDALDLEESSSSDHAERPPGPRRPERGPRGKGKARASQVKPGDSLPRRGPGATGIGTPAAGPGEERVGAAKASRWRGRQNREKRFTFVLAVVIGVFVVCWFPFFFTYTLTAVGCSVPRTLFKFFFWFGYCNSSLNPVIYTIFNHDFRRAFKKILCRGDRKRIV

[3] = biological target: T3, Estrogen receptor (Homo sapiens, UniProt P03372)
T3 sequence (P03372 whole entry): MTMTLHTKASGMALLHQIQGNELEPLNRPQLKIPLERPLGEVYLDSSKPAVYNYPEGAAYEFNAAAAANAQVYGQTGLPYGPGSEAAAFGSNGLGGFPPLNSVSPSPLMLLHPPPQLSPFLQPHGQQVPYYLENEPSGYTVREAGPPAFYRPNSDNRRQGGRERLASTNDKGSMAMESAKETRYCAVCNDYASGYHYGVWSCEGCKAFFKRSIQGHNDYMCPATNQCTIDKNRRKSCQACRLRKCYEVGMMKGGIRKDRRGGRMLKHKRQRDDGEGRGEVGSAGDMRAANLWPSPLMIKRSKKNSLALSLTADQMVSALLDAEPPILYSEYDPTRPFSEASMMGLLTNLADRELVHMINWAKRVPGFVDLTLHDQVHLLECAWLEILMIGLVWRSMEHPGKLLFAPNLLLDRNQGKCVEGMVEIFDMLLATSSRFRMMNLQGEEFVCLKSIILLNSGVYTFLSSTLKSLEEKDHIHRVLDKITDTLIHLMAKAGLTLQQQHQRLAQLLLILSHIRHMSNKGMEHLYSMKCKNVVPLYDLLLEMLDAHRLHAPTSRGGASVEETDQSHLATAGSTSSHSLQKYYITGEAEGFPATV

[4] = biological target: T4, 5-hydroxytryptamine receptor 1A (Homo sapiens, UniProt P08908)
T4 sequence (P08908 whole entry): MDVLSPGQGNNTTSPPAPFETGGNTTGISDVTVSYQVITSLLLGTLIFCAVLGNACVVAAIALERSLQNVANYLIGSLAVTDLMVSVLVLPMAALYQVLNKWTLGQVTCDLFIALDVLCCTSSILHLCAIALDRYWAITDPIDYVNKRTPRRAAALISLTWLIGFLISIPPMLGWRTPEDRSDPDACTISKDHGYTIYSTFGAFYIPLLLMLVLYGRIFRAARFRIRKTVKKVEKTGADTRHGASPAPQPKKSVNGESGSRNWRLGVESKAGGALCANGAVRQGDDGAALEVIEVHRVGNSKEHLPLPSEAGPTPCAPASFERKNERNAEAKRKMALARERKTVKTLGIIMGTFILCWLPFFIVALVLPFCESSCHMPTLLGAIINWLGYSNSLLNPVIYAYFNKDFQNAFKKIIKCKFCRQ

[5] = biological target: T5, Amine oxidase [flavin-containing] A (Homo sapiens, UniProt P21397); format: functional
T5 sequence (P21397 whole entry): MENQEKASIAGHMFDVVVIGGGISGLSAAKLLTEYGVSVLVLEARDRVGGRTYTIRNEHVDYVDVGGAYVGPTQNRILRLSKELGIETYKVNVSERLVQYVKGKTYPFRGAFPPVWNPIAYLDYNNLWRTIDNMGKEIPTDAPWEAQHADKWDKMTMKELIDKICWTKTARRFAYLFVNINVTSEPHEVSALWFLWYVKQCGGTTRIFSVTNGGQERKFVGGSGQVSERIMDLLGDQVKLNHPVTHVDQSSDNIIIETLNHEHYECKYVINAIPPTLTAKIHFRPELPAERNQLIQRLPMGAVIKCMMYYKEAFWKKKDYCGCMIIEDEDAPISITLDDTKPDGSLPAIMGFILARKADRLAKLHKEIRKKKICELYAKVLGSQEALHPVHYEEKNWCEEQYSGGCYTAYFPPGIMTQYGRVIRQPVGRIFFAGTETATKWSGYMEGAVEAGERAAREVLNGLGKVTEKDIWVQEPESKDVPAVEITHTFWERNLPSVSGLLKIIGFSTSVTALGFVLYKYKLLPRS

[6] = biological target: cGMP-inhibited 3',5'-cyclic phosphodiesterase 3A (Homo sapiens, UniProt Q14432); format: functional
cGMP-inhibited 3',5'-cyclic phosphodiesterase 3A, sequence (Q14432 whole entry): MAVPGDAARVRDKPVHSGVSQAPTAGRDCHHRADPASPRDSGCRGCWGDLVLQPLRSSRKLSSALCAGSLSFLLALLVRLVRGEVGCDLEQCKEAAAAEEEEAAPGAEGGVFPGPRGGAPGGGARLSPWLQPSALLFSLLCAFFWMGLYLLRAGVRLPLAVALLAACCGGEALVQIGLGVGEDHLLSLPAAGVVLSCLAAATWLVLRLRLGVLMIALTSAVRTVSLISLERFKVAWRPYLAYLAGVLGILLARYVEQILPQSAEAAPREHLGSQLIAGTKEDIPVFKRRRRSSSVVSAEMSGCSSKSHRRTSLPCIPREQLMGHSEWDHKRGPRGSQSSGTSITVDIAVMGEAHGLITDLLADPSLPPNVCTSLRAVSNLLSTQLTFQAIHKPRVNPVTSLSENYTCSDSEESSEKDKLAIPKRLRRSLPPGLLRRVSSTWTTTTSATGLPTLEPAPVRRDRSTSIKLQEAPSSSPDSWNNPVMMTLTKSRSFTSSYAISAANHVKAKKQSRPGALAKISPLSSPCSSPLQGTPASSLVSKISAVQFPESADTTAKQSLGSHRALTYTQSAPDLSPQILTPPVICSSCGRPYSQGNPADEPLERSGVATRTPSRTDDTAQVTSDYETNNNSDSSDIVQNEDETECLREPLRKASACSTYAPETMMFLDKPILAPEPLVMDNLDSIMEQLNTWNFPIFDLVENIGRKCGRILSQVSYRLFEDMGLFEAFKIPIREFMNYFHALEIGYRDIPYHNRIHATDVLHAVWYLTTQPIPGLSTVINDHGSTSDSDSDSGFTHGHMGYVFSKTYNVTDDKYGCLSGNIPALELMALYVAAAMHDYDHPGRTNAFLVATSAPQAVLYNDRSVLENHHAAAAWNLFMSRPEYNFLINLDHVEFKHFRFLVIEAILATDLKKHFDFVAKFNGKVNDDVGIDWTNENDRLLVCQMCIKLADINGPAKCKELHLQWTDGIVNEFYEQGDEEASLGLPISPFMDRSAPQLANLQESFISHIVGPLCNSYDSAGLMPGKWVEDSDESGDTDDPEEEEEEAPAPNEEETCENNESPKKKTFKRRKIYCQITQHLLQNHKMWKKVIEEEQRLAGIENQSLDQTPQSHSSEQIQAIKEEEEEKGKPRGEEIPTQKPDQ

[7] = biological target: 3',5'-cyclic-AMP phosphodiesterase 4A (Homo sapiens, UniProt P27815); format: functional
3',5'-cyclic-AMP phosphodiesterase 4A, sequence (P27815 whole entry): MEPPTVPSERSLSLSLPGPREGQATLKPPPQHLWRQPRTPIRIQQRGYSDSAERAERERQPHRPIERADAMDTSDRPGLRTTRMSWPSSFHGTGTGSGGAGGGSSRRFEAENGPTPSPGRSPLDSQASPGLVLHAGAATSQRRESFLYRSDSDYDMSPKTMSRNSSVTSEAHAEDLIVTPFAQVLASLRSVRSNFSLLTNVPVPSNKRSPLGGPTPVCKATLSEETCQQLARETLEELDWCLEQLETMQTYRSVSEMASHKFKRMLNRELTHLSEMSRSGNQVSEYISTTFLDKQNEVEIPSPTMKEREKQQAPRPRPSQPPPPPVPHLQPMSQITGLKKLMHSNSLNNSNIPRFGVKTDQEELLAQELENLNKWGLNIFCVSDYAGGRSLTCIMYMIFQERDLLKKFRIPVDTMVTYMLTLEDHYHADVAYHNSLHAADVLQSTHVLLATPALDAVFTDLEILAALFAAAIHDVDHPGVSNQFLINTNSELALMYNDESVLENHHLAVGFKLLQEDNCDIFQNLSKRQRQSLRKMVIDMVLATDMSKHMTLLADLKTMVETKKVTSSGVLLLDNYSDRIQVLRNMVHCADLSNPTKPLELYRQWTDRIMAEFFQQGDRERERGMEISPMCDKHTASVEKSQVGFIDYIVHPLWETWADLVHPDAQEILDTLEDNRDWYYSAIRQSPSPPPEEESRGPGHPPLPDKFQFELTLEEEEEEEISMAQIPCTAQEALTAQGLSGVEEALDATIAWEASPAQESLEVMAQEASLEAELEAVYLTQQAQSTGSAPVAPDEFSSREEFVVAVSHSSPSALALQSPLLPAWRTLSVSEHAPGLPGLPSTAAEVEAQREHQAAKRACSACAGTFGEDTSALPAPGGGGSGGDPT

[8] = biological target: Sodium-dependent noradrenaline transporter (Homo sapiens, UniProt P23975)
Sodium-dependent noradrenaline transporter, sequence (P23975 whole entry): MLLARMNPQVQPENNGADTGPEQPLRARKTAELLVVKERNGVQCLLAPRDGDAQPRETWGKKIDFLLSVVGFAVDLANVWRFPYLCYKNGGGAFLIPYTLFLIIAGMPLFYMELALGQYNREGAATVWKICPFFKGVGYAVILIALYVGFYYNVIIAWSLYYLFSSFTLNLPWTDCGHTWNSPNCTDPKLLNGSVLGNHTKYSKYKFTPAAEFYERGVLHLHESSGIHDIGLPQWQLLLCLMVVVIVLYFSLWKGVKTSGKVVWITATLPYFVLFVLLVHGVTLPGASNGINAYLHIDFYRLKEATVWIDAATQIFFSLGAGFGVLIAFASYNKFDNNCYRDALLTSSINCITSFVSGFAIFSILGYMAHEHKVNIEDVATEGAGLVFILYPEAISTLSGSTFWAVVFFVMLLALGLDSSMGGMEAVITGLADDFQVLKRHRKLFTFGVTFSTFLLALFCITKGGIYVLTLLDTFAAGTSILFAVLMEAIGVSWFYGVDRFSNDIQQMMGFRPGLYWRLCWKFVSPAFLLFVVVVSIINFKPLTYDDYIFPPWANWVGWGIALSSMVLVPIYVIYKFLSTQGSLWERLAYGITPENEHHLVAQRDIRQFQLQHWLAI
Note: assay procedure not described here.

| Structure (SMILES) | AC50 [1] [µM] | AC50 [2] [µM] | AC50 [3] [µM] | AC50 [4] [µM] | AC50 [5] [µM] | AC50 [6] [µM] | AC50 [7] [µM] | AC50 [8] [µM] |
| --- | --- | --- | --- | --- | --- | --- | --- | --- |
| O=C(O)CCn1c2c(c3ccccc31)C[C@H](NS(=O)(=O)c1ccc(F)cc1)CC2 [RAMATROBAN] | > 30 | > 30 | > 10 | > 30 | > 30 | > 30 | > 30 | > 30 |
| NC(=O)c1cccc2cn(-c3ccc([C@@H]4CCCNC4)cc3)nc12 [NIRAPARIB] | > 30 | > 30 | > 30 | > 30 | > 30 | > 30 | > 30 | 1 |
| O=C1NCC2(CCN(CCc3ccccc3)CC2)O1 [FENSPIRIDE] | > 30 | 8.2 | > 30 | > 30 | > 30 | > 30 | > 30 | > 30 |
| CCN(CC)CCNc1ccc(C)c2sc3ccccc3c(=O)c12 [LUCANTHONE] | 17.9 | 5.65 | > 30 | 0.523 | 16.3 | > 30 | > 30 | 2.68 |
| O=C(Nc1ccccc1)OCC(CN1CCCCC1)OC(=O)Nc1ccccc1 (stereo not drawn) [DIPERODON] | > 30 | > 30 | > 30 | > 30 | > 30 | > 30 | > 30 | > 30 |
| CC/C=C\C/C=C\C/C=C\C/C=C\C/C=C\CCCC(=O)O [ICOSAPENT] | > 30 | > 30 | > 30 | > 30 | > 30 | > 30 | > 30 | > 30 |
| O=C(O)CCCN1CCC(O[C@@H](c2ccc(Cl)cc2)c2ccccn2)CC1 [BEPOTASTINE] | > 30 | > 30 | > 30 | > 30 | > 30 | > 30 | > 30 | > 30 |
| O=C(c1ccc(F)c(F)c1Nc1ccc(I)cc1F)N1CC(O)([C@@H]2CCCCN2)C1 [COBIMETINIB] | > 30 | > 30 | > 30 | > 30 | > 30 | > 30 | > 30 | 16.9 |
| Oc1c(I)cc(I)c2cccnc12 [IODOQUINOL] | > 30 | > 30 | > 30 | > 10 | > 30 | 3.36 | > 30 | 0.874 |
| Nc1ccc(C(=O)O)cc1 [AMINOBENZOIC ACID] | > 30 | > 30 | > 30 | > 30 | > 30 | > 30 | > 30 | > 30 |
| NCc1ccccc1CC(=O)N[C@@H]1C(=O)N2C(C(=O)O)=C(CSc3nnnn3CC(=O)O)CS[C@H]12 [CEFORANIDE] | > 30 | > 30 | > 30 | > 30 | > 30 | > 30 | > 30 | > 30 |
